Assay results published in EP0302445B1, “A novel hypoglycemic and growth-promoting agent” (THE PROTOR CO., priority 1987, dated 1992).

Test system: insulinase
Assay: insulinase inhibitory activity measurement (method of Duckworth et al.)
Assay type: biochemical
Conditions: fractions of commercial bacitracin, result in words
Protocol: The desired fraction is believed to have a molecular weight of about 1400, approximately the same as bacitracin A or F. Their anti-insulinase and antibacterial activities can be assayed in conventional manner. For example, the insulinase inhibitory activity was measured according to the method of Duckworth, et al., Proc. Nat. Acad. Sci., 69, 3698-3702 (1972) and the anti-bacterial activity by the method of Patrick, et al., Antibiotics and Chemotherapy, 1, 133-137 (1951).
A 350 ml bed volume of CM-Sepharose in a packed column (2.8 x 56 cm) was equilibrated with 0.05M ammonium acetate, pH 4.5 One gram of commercial bacitracin dissolved in 50 ml of buffer was applied to the packed column. The material was eluted with 2 l of equilibrating buffer followed by 350 ml of 1M ammonium acetate pH 4.5 buffer. Five ml fractions were collected and absorbance measurements at 252, 280 and 290 nm were made. In addition, insulinase inhibitory activity measurements were made on each peak. […] The peaks were collected, lyophilized, weighed and dissolved in water at 5 mg/ml concentration for specific activity measurements. The material collected with the second buffer contained 5-10 % of the total weight of the applied material and 90 % of the total insulinase inhibitory capacity. The specific activity of this material was 10-12 times that of the starting commercial material.

| Substance | insulinase inhibitory activity | insulinase inhibitory activity (listed as Bacitracin A) | insulinase inhibitory activity (listed as Bacitracin F) |
| --- | --- | --- | --- |
| bacitracin A | substantially no anti-insulinase activity | negligible | – |
| bacitracin F | substantially no anti-insulinase activity | – | negligible |
